From patent US20150307520A1, “NOVEL HETEROARYL AND HETEROCYCLE COMPOUNDS, COMPOSITIONS AND METHODS THEREOF” (HUTCHISON MEDIPHARMA LIMITED, priority 2012, published 2015)

How the values were obtained:
Format in all cases: biochemical
p110γ = p110γ (Homo sapiens, UniProt P48736); experiment: Transcreener KINASE Assay, kinase inhibition of p110γ; settings: for PI3Kγ IH % @ 1 uM: 1 uM test compound; for IC50: read-out: PI3Kγ IC50
Method: Kinase Inhibition assays of p110α/p85α, p110β/p85α, p110δ/p85α and p110γ PI3K kinases including p110α/p85α, p110δ/p85α and p110γ are purchased from Invitrogen, and p110β/p85α is from Millipore. Primary screening data and IC50 values are measured using Transcreener™ KINASE Assay (Bellbrook, Catalog #3003-10K). […] It is a universal, homogenous, high throughput screening (HTS) technology using a far-red, competitive fluorescence polarization immunoassay based on the detection of ADP to monitor the activity of enzymes that catalyze group transfer reactions. Briefly, the Transcreener KINASE Assay is designed as a simple two-part, endpoint assay. […] The plate is sealed and incubated for 80 min at room temperature. Next, 25 ul ADP detection mix is added per well. The plate is sealed again and incubated for 60 min at room temperature, and then measure fluorescence polarization by Tecan Infinite F500 Reader. Data is analyzed and IC50s are generated using the add-in software for Microsoft Excel, Xlfit™ (version 2.0).

p110δ/p85α = p110δ/p85α (Homo sapiens, UniProt O00329); experiment: Transcreener KINASE Assay, kinase inhibition of p110δ/p85α; settings: for PI3Kδ IH % @ 1 uM: 1 uM test compound; for IC50: read-out: PI3Kδ IC50
p110δ/p85α, sequence (O00329 whole entry): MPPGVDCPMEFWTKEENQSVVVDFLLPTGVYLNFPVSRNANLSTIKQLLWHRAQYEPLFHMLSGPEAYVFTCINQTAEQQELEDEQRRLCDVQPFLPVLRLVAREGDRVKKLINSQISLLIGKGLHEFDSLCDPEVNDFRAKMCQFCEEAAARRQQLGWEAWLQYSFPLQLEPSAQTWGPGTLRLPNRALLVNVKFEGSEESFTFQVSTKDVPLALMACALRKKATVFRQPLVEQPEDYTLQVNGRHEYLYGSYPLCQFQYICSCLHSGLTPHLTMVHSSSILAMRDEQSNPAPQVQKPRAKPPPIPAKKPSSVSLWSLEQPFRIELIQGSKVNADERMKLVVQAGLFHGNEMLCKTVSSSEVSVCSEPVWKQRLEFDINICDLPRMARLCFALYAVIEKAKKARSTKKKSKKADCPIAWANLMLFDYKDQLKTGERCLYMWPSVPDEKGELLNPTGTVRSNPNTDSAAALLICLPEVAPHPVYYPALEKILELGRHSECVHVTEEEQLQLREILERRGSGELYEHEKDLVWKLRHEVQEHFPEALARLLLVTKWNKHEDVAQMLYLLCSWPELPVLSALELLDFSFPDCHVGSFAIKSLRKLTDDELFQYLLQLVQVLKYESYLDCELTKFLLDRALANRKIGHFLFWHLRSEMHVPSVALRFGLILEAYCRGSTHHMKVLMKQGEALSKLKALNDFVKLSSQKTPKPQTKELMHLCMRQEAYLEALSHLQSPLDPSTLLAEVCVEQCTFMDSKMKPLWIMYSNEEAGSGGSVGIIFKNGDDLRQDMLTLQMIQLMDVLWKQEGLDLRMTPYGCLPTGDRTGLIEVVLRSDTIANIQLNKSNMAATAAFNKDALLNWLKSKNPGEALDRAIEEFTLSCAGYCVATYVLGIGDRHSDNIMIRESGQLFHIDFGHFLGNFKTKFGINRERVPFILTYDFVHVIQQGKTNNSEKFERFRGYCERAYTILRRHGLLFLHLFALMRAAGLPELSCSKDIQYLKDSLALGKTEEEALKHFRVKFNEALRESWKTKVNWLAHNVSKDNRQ
p110δ/p85α, sequence (P27986 whole entry partner): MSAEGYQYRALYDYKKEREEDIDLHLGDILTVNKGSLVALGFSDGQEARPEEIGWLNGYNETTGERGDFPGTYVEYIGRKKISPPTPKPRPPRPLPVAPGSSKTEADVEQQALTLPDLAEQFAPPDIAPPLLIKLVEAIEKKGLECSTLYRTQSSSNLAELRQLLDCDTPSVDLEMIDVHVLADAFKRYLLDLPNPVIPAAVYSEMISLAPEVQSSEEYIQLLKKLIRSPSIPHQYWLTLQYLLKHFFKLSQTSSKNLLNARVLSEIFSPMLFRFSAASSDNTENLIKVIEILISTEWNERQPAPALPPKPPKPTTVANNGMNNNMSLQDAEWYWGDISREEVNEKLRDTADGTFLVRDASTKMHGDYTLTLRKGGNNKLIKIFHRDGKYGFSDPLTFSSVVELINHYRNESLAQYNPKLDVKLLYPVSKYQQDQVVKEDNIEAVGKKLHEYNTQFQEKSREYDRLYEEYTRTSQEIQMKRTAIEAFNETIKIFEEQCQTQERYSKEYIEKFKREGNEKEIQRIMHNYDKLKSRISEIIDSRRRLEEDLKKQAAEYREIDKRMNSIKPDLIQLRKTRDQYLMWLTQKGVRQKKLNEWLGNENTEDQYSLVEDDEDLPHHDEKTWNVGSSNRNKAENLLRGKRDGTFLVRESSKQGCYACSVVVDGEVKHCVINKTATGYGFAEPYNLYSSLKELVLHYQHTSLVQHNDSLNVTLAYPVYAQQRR
Method: (§1) PI3K kinases including p110α/p85α, p110δ/p85α and p110γ are purchased from Invitrogen, and p110β/p85α is from Millipore.
(§2) Primary screening data and IC50 values are measured using Transcreener™ KINASE Assay (Bellbrook, Catalog #3003-10K). […] It is a universal, homogenous, high throughput screening (HTS) technology using a far-red, competitive fluorescence polarization immunoassay based on the detection of ADP to monitor the activity of enzymes that catalyze group transfer reactions. Briefly, the Transcreener KINASE Assay is designed as a simple two-part, endpoint assay.
(§3) In the first step, the 25 ul kinase reaction is performed by preparing a reaction mixture containing 5 ul test compound (2% DMSO final concentration), 10 ul kinase, buffer (50 mM HEPES, 100 mM NaCl, 1 mM EGTA, 0.03% CHAPS, 3 mM MgCl2, and freshly supplemented 1 mM DTT), and 10 ul 30 uM PIP2/10 uM ATP. The plate is sealed and incubated for 80 min at room temperature. Next, 25 ul ADP detection mix is added per well. The plate is sealed again and incubated for 60 min at room temperature, and then measure fluorescence polarization by Tecan Infinite F500 Reader.
(§4) Data is analyzed and IC50s are generated using the add-in software for Microsoft Excel, Xlfit™ (version 2.0). IH %=(ADP amount under 2% DMSO-ADP amount under test compound)/ADP amount under 2% DMSO.

p110β/p85α = p110β/p85α (Homo sapiens, UniProt P42338); experiment: Transcreener KINASE Assay, kinase inhibition of p110β/p85α; settings: for PI3Kβ IH % @ 1 uM: 1 uM test compound; for IC50: read-out: PI3Kβ IC50
p110β/p85α, sequence (P42338 whole entry): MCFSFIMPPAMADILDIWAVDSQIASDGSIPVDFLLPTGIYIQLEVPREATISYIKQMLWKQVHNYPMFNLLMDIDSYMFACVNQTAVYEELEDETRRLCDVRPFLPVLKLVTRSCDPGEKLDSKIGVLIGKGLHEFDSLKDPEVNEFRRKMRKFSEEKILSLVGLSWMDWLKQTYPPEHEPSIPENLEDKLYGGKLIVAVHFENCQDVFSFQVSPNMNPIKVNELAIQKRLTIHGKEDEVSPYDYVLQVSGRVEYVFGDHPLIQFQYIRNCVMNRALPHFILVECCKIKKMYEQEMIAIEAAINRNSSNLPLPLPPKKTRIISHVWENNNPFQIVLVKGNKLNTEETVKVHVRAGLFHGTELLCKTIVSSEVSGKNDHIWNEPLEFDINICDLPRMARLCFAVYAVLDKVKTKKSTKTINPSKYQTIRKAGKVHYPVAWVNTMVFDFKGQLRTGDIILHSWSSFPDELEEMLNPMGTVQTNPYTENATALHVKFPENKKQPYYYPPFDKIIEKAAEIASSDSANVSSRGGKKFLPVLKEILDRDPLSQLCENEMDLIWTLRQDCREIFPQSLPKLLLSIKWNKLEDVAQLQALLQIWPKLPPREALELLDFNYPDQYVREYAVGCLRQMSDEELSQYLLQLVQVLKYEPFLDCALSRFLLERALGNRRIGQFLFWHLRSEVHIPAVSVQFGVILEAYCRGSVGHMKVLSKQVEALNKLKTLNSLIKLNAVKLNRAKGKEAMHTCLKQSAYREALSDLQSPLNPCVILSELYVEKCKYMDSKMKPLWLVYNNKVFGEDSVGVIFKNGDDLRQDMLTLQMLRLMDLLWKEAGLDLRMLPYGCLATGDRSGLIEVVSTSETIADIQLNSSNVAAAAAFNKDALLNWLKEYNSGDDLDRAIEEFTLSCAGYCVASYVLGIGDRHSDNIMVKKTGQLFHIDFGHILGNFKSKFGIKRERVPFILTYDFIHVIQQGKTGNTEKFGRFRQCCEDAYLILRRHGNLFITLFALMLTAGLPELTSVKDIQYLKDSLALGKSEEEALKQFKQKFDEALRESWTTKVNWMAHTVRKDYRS
p110β/p85α, sequence (P27986 2-724 partner): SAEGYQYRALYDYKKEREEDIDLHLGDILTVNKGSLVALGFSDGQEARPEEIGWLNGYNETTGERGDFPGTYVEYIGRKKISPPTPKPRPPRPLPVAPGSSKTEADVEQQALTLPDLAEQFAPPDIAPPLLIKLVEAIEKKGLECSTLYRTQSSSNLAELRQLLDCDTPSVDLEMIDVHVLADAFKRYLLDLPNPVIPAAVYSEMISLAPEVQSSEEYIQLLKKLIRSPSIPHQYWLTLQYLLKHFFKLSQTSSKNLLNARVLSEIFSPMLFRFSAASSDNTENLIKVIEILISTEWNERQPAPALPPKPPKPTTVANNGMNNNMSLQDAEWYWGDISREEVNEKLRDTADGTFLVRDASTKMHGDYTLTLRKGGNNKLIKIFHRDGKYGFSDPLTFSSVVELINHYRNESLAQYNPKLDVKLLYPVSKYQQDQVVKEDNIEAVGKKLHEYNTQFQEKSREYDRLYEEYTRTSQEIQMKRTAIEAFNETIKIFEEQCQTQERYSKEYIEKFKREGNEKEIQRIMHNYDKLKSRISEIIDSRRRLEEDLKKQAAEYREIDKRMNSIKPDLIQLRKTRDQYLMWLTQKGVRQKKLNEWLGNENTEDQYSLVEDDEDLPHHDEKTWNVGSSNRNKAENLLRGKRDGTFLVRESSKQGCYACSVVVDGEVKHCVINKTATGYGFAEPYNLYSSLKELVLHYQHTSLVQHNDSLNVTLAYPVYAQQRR
Method: as §1, §2, §3, §4

p110γ, sequence (P48736 whole entry): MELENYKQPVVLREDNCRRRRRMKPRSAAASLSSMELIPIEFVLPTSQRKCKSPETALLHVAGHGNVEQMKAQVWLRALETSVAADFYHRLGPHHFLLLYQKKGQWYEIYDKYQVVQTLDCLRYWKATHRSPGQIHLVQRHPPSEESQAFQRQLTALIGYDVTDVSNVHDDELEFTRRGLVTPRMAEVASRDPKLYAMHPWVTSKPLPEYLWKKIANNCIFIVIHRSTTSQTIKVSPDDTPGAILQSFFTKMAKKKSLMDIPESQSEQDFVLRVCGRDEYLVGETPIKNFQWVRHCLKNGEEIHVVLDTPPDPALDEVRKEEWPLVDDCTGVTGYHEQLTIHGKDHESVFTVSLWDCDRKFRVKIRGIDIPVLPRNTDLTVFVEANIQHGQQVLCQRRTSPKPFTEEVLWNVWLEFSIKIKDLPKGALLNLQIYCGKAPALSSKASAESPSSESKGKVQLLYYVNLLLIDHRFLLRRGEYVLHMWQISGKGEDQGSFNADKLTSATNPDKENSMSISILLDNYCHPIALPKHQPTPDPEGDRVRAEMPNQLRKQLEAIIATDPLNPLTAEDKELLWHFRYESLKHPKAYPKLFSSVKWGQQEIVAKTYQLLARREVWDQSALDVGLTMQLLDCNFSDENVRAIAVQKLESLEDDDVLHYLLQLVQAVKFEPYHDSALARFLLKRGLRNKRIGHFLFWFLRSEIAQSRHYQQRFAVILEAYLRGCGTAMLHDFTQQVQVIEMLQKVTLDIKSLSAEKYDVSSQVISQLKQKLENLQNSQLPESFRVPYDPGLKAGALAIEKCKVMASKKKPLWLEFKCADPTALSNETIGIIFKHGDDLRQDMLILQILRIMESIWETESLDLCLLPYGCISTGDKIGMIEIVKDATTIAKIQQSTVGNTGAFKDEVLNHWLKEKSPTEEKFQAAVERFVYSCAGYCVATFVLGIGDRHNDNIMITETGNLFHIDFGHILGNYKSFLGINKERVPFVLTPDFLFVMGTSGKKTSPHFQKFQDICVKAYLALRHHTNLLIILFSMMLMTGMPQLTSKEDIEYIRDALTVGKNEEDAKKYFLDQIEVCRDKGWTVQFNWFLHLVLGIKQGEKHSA

| SMILES | PI3Kγ IH % @ 1 uM (p110γ) | IC50 (p110γ) | PI3Kδ IH % @ 1 uM (p110δ/p85α) | IC50 (p110δ/p85α) | PI3Kβ IH % @ 1 uM (p110β/p85α) | IC50 (p110β/p85α) |
| --- | --- | --- | --- | --- | --- | --- |
| NC(=O)c1c[nH]c2ncnc(N3CCC[C@H]3c3nn4ccc(Cl)c4c(=O)n3-c3ccccc3)c12 [Compound 95] | >100% | 7 nM | 97.6% | 1 nM | 82.0% | 36 nM |
| CNC(=O)c1c[nH]c2ncnc(N3CCC[C@H]3c3nn4ccc(Cl)c4c(=O)n3-c3ccccc3)c12 [Compound 96] | 94.3% | 71 nM | 97.3% | 24 nM | 73.4% | 169 nM |
| CN(C)C(=O)c1c[nH]c2ncnc(N3CCC[C@H]3c3nn4ccc(Cl)c4c(=O)n3-c3ccccc3)c12 [Compound 97] | 84.6% | 144 nM | 55.1% |  | 45.1% |  |
| COc1ncc(-c2c[nH]c3ncnc(N4CC[C@H]4c4nn5ccc(Cl)c5c(=O)n4-c4ccccc4)c23)cn1 [Compound 100] | >100% | 5 nM | >100% | 1 nM | 89.8% | 6 nM |
| COc1ccc(-c2c[nH]c3ncnc(N4CC[C@H]4c4nn5ccc(Cl)c5c(=O)n4-c4ccccc4)c23)cn1 [Compound 102] | >100% | 14 nM | >100% | 1 nM | 92.3% | 61 nM |
| Nc1ncc(-c2c[nH]c3ncnc(N4CC[C@H]4c4nn5ccc(Cl)c5c(=O)n4-c4ccccc4)c23)cn1 [Compound 104] | >100% | 3 nM | >100% |  | >100% | 17 nM |
| C#Cc1ccn2nc([C@@H]3CCN3c3ncnc4[nH]cc(C#N)c34)n(-c3ccccc3)c(=O)c12 [Compound 105, (S)-4-(2-(5-ethynyl-4-oxo-3-phenyl-3,4-dihydropyrrolo[2,1-f][1,2,4]triazin-2-yl)azetidin-1-yl)-7H-pyrrolo[2,3-d]pyrimidine-5-carbonitrile] | 90.4% | 80 nM | 90.0% | 15 nM | 16.0% |  |
| CC(C)Cn1c([C@@H]2CCCN2c2ncnc3[nH]cc(C#N)c23)nn2c(F)ccc2c1=O [Compound 107, (S)-4-(2-(7-fluoro-3-isobutyl-4-oxo-3,4-dihydropyrrolo[2,1-f][1,2,4]triazin-2-yl)pyrrolidin-1-yl)-7H-pyrrolo[2,3-d]pyrimidine-5-carbonitrile] | 71.8% | 153 nM | 98.6% | 5 nM | 34.5% |  |
| COc1ccc(-c2c(N)ncnc2N2CC[C@H]2c2nn3ccc(Cl)c3c(=O)n2-c2ccccc2)cn1 [Compound 108, (S)-2-(1-(6-amino-5-(6-methoxypyridin-3-yl)pyrimidin-4-yl)azetidin-2-yl)-5-chloro-3-phenylpyrrolo[2,1-f][1,2,4]triazin-4(3H)-one] | 90.0% |  | 75.9% |  | 26.9% |  |
| COc1ccc(-c2n[nH]c3ncnc(N4CCC[C@H]4c4nn5ccc(Cl)c5c(=O)n4-c4ccccc4)c23)cn1 [Compound 109] | 98.3% | 192 nM | 99.8% | 4 nM | 61.0% |  |
| CC(Nc1ncnc2[nH]cnc12)c1cc2ncc(Cl)n2c(=O)n1-c1ccccc1 (centres unmarked) [Compound 115, 7-(1-(9H-purin-6-ylamino)ethyl)-3-chloro-6-phenylimidazo[1,2-c]pyrimidin-5(6H)-one] | 91.7% | 3 nM | >100% | 2 nM | 80.2% | 143 nM |
| CC(Nc1ncnc2[nH]cc(C#N)c12)c1cc2ncc(Cl)n2c(=O)n1-c1cccc(F)c1 (centres unmarked) [Compound 118] | 5.2% |  | 77.5% | 471 nM | 19.1% |  |
| CC(Nc1ncnc2[nH]cnc12)c1cc2ccc(Cl)n2c(=O)n1-c1ccccc1 (centres unmarked) [Compound 122, 3-(1-(9H-purin-6-ylamino)ethyl)-7-chloro-2-phenylpyrrolo[1,2-c]pyrimidin-1(2H)-one] | >100% | 8 nM | >100% | 3 nM | 88.3% | 51 nM |
| CC(Nc1ncnc2[nH]cc(C#N)c12)c1cc2ccc(Cl)n2c(=O)n1-c1ccccc1 (centres unmarked) [Compound 124] | >100% | 12 nM | 98.0% | 2 nM | 95.0% | 22 nM |
| CC(Nc1ncnc(N)c1C#N)c1cc2ccc(Cl)n2c(=O)n1-c1ccccc1 (centres unmarked) [Compound 125] | 94.0% | 3 nM | >100% | 1 nM | 95.7% | 6 nM |

Continued, values first:

| PI3Kγ IH % @ 1 uM (p110γ) | IC50 (p110γ) | PI3Kδ IH % @ 1 uM (p110δ/p85α) | IC50 (p110δ/p85α) | PI3Kβ IH % @ 1 uM (p110β/p85α) | IC50 (p110β/p85α) | SMILES |
| --- | --- | --- | --- | --- | --- | --- |
| 98.2% | 19 nM | 99.7% | 1 nM | >100% | 46 nM | N#Cc1ncc(-c2c[nH]c3ncnc(N4CC[C@H]4c4nn5ccc(Cl)c5c(=O)n4-c4ccccc4)c23)cn1 [Compound 103] |
| 67.2% |  | 93.9% | 45 nM | 39.0% |  | N#Cc1n[nH]c2ncnc(N3CCC[C@H]3c3nn4ccc(Cl)c4c(=O)n3-c3ccccc3)c12 [Compound 111, (S)-4-(2-(5-chloro-4-oxo-3-phenyl-3,4-dihydropyrrolo[2,1-f][1,2,4]triazin-2-yl)pyrrolidin-1-yl)-1H-pyrazolo[3,4-d]pyrimidine-3-carbonitrile] |
| 4.3% |  | 93.7% | 27 nM | 86.4% | 159 nM | O=c1c2c(Cl)ccn2nc([C@@H]2CCN2c2nc(N3CCOCC3)nc3[nH]cnc23)n1-c1ccccc1 [Compound 114, (S)-5-chloro-2-(1-(2-morpholino-9H-purin-6-yl)azetidin-2-yl)-3-phenylpyrrolo[2,1-f][1,2,4]triazin-4(3H)-one] |
| 96.9% | 45 nM | >100% | 5 nM | >100% | 128 nM | CC(Nc1ncnc2[nH]cc(C#N)c12)c1cc2ncc(Cl)n2c(=O)n1-c1ccccc1 (centres unmarked) [Compound 116] |
| >100% | 43 nM | >100% | 5 nM | >100% | 38 nM | CC(Nc1ncnc(N)c1C#N)c1cc2ncc(Cl)n2c(=O)n1-c1ccccc1 (centres unmarked) [Compound 117] |
| 85.6% | 239 nM | 94.3% |  | 47.8% |  | CC(Nc1ncnc2[nH]cnc12)c1cc2cccn2c(=O)n1-c1ccccc1 (centres unmarked) [Compound 119, 3-(1-(9H-purin-6-ylamino)ethyl)-2-phenylpyrrolo[1,2-c]pyrimidin-1(2H)-one] |
| 85.9% | 295 nM | >100% |  | 74.7% | 237 nM | CC(Nc1ncnc(N)c1C#N)c1cc2cccn2c(=O)n1-c1ccccc1 (centres unmarked) [Compound 120] |
| >100% | 20 nM | >100% | 1 nM | 90.9% | 25 nM | CC(Nc1ncnc(N)c1C#N)c1cc2c(Cl)cc(Cl)n2c(=O)n1-c1ccccc1 (centres unmarked) [Compound 126] |
| 33.3% |  | 97.8% | 18 nM | 17.8% |  | CC(Nc1ncnc2[nH]cc(C#N)c12)c1cc2c(Cl)cc(Cl)n2c(=O)n1-c1cccc(F)c1 (centres unmarked) [Compound 129] |
| >100% | 70 nM | >100% | 9 nM | 74.5% | 338 nM | O=c1c2c(F)ccn2nc([C@@H]2C[C@H](F)CN2c2ncnc3[nH]cnc23)n1-c1ccccc1 [Compound 132, 5-fluoro-2-((2S,4S)-4-fluoro-1-(9H-purin-6-yl)pyrrolidin-2-yl)-3-phenylpyrrolo[2,1-f][1,2,4]triazin-4(3H)-one] |
